Laboratory results published in patent US20200237695A1, “LEVOTHYROXINE LIQUID FORMULATIONS” (Hikma Pharmaceuticals USA Inc., priority 2019, published 2020).
In brackets after ≈: the same amount, converted by molar mass.

Experiment: Levothyroxine solubilization in aqueous amino acid solutions
Assay type: physicochemical
Details: aqueous buffer
Experimental: The formulations can further include one or more pH adjusters, for example, a single pH adjuster. The pH adjuster can be an amino acid, which can be the sole amino acid and pH adjuster in the formulation. The pH adjuster serves to aid in adjusting the pH of the aqueous formulation and selectively the solubilization of levothyroxine or any salt thereof in the liquid formulation. In one or more embodiments, the pH adjuster is arginine. In water, a concentration of arginine from about 1 mg/mL to about 20 mg/mL adjust the pH of water to about 10.3 to about 11.

- solubility (aqueous arginine solution, arginine in aqueous solutions): > 500 µg/mL
- solubility (aqueous aspartic acid solution, aspartic acid 1 mg/mL in water): 450 µg/mL (≈ 579 µM)
- solubility (aqueous aspartic acid solution, aspartic acid 4 mg/mL in water): 100 µg/mL (≈ 129 µM)
SMILES: N[C@@H](Cc1cc(I)c(Oc2cc(I)c(O)c(I)c2)c(I)c1)C(=O)O [levothyroxine, 4-(4-hydroxy-3,5-diiodophenoxy)-3,5-diiodo-L-phenylalanine]
